From patent US11292002B2, “Surfactant additives for digital microfluidic devices for high protein content droplets transport” (THE GOVERNING COUNCIL OF THE UNIVERSITY OF TORONTO, priority 2016, dated 2022)

Target: BSA (Bos taurus, UniProt P02769)
Assay: Circular dichroism (CD) spectra of BSA with surfactant
Type: physicochemical, bovine
Settings: 0.1 g·L^−1 BSA; 1, 2, 2.5, 4, or 6 mM SDS
Source text: Resolution of CD is ±0.1 degree.
Surfactant-protein complexation is often associated with molecular rearrangement of the protein (i.e., change in protein conformation). […] Protein conformation changes can be probed using circular dichroism (CD) experiments, as illustrated in FIG. 5.

BSA, sequence (P02769 25-607): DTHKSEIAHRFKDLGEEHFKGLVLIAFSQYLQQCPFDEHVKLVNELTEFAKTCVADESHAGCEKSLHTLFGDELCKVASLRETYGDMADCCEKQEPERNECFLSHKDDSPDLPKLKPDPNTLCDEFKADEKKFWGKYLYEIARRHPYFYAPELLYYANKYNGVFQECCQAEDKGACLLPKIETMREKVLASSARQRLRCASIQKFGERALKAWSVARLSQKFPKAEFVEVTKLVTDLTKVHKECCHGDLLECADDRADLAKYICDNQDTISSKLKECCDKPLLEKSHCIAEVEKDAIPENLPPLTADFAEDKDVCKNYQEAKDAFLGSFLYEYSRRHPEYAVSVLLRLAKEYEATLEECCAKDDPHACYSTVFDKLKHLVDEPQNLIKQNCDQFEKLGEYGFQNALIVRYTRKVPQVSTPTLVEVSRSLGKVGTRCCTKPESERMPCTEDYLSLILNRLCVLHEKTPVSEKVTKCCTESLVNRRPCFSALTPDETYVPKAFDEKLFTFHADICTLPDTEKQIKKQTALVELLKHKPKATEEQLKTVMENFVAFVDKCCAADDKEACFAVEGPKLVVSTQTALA

SMILES: CCCCCCCCCCCCOS(=O)(=O)[O-].[Na+] [SDS, sodium dodecyl sulfate]
- CD spectrum of BSA with surfactant compared with BSA alone: distinctly different CD spectrum
